# Molecular target: T1, EGFR (Homo sapiens, UniProt P00533)
# T1 construct: expressed in transfected cells; host or cells: NIH 3T3/C7
# Assay: EGF receptor ELISA in cells engineered to express human EGF-R
# Assay type: cell-based
# Conditions: 50% inhibition of PTK activity over control
# Protocol: The cellular/catalytic assays described herein are performed in an ELISA format. The general procedure is a follows: a compound is introduced to cells expressing the test kinase, either naturally or recombinantly, for some period of time after which, if the test kinase is a receptor, a ligand known to activate the receptor's activity is added. The cells are lysed and the lysate is transferred to the wells of an ELISA plate previously coated with a specific antibody recognizing the substrate of the enzymatic phosphorylation reaction. Non-substrate components of the cell lysate are washed away and the amount of phosphorylation on the substrate is detected with an antibody specifically recognizing phosphotyrosine compared with control cells that were not contacted with a test compound.
# EGF Receptor kinase activity in cells genetically engineered to express human EGF-R can be measured as described below:
# The following materials and reagents are used
# a. EGF Ligand: stock concentration=16.5 μM; EGF 201, TOYOBO, Co., Ltd. Japan.
# b. 05-101 (UBI) (a monoclonal antibody recognizing an EGFR extracellular domain).
# c. Anti-phosphotyosine antibody (anti-Ptyr) (polyclonal).
# d. Detection antibody: Goat anti-rabbit lgG horse radish peroxidase conjugate, TAGO, Inc., Burlingame, Calif.
# Keep solution in dark at 4 C until used.
# The following protocol is used:
# 1. Coat ELISA plates (Corning, 96 well, Cat. #25805-96) with 05-101 antibody at 0.5 μg per well in PBS, 150 μL final volume/well, and store overnight at 4° C. Coated plates are good for up to 10 days when stored at 4° C.
# 2. On day of use, remove coating buffer and replace with blocking buffer (5% Carnation Instant NonFat Dry Milk in PBS). Incubate the plate, shaking, at room temperature (about 23° C. to 25° C.) for 30 minutes. Just prior to use, remove blocking buffer and wash plate 4 times with TBST buffer.
# 1. NIH 3T3/C7 cell line (Honegger, et al., Cell 51:199-209, 1987) can be use for this assay.
# 2. Choose dishes having 80-90% confluence for the experiment. Trypsinize cells and stop reaction by adding 10% CS DMEM medium. Suspend cells in DMEM medium (10% CS DMEM medium) and centrifuge once at 1000 rpm at room temperature for 5 minutes.
# 3. Resuspend cells in seeding medium (DMEM, 0.5% bovine serum), and count the cells using trypan blue. Viability above 90% is acceptable. Seed cells in DMEM medium (0.5% bovine serum) at a density of 10,000 cells per well, 100 μL per well, in a 96 well microtiter plate. Incubate seeded cells in 5% CO2 at 37° C. for about 40 hours.
# 1. Check seeded cells for contamination using an inverted microscope. Dilute drug stock (10 mg/mL in DMSO) 1:10 in DMEM medium, then transfer 5 μL to a test well for a final drug dilution of 1:200 and a final DMSO concentration of 1%. Control wells receive DMSO alone. Incubate in 5% CO2 at 37° C. for one hour.
# 2. Prepare EGF ligand: dilute stock EGF in DMEM so that upon transfer of 10 μL dilute EGF (1:12 dilution), 25 nM final concentration is attained.
# 3. Prepare fresh 10 mL HNTG* sufficient for 100 μL per well wherein HNTG* comprises: HNTG stock (2.0 mL), milli-Q H2O (7.3 mL), EDTA, 100 mM, pH 7.0 (0.5 mL), Na3VO4 0.5 M (0.1 mL) and Na4(P2O7), 0.2 M (0.1 mL).
# 5. After two hours incubation with drug, add prepared EGF ligand to cells, 10 μL per well, to yield a final concentration of 25 nM. Control wells receive DMEM alone. Incubate, shaking, at room temperature, for 5 minutes.
# 6. Remove drug, EGF, and DMEM. Wash cells twice with PBS. Transfer HNTG* to cells, 100 μL per well. Place on ice for 5 minutes. Meanwhile, remove blocking buffer from other ELISA plate and wash with TBST as described above.
# 7. With a pipette tip securely fitted to a micropipettor, scrape cells from plate and homogenize cell material by repeatedly aspirating and dispensing the HNTG* lysis buffer. Transfer lysate to a coated, blocked, and washed ELISA plate. Incubate shaking at room temperature for one hour.
# 8. Remove lysate and wash 4 times with TBST. […]
# T1 sequence (P00533 25-1210): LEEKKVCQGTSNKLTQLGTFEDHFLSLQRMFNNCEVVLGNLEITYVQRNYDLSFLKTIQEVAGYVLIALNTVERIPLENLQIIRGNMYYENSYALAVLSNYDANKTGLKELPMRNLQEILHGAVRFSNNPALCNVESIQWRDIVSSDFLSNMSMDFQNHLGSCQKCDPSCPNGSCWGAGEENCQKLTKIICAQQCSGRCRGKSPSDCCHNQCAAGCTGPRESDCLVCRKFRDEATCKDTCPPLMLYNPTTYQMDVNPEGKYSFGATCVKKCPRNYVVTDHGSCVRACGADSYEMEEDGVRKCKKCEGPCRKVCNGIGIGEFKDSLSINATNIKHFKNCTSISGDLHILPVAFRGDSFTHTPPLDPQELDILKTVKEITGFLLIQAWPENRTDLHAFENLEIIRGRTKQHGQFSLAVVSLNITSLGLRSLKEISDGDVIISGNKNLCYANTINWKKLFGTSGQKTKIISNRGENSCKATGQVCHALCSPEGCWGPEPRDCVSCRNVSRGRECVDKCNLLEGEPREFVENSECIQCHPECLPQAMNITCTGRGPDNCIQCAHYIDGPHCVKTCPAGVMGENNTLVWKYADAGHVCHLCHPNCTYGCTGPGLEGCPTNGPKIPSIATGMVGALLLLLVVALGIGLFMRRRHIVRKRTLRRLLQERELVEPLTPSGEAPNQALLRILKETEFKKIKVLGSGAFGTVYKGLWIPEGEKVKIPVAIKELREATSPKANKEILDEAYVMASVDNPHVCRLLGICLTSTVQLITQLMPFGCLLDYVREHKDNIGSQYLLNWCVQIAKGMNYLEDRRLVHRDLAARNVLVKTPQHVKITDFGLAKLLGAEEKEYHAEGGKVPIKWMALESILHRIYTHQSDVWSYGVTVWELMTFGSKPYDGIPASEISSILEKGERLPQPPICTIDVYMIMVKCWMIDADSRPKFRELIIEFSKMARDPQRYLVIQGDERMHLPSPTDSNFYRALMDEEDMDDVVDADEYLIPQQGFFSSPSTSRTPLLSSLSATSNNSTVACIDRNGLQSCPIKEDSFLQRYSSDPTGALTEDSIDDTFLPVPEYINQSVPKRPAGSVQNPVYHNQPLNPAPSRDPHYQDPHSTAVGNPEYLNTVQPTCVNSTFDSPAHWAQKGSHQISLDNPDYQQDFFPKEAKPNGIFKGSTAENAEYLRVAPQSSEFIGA
row,Compound,IC50 [µM]
1,CCOC(=O)c1[nH]c(C=C2C(=O)Nc3ccccc32)c(C(C)=O)c1C [3-(4-acetyl-2-ethoxycarbonyl-3-methylpyrrol-5-methylidenyl)-2-indolinone],> 10
2,CCOC(=O)c1c[nH]c(C=C2C(=O)Nc3ccccc32)c1C [3-(4-ethoxycarbonyl-3-methylpyrrol-2-methylidenyl)-2-indolinone],> 100
3,CCOC(=O)CCc1c(C(=O)OCC)[nH]c(C=C2C(=O)Nc3ccccc32)c1CC(=O)OCC [3-[2-ethoxycarbonyl-3-(2-ethoxycarbonylethyl)-4-ethoxycarbonylmethyl)pyrrol-5-methylidenyl)-2-indolinone],> 10
4,"CC(=O)c1[nH]c(C=C2C(=O)Nc3ccccc32)c(C)c1C [3-(2-acetyl-3,4-dimethylpyrrol-5-methylidenyl)-2-indolinone]",> 100
5,"CCOC(=O)c1c(C)[nH]c(C=C2C(=O)Nc3ccc(Br)cc32)c1C [3-(2,4-dimethyl-3-ethoxycarbonylpyrrol-5-methylidenyl)-5-bromo-2-indolinone]",> 25
6,"COC(=O)CCc1c[nH]c(C=C2C(=O)Nc3cc(OC)c(OC)cc32)c1C [3-[4-(2-methoxycarbonylethyl)-3-methylpyrrol-2-methylidenyl]-5,6-dimethoxy-2-indolinone]",> 50
7,COC(=O)Cc1c(Cl)[nH]c(C=C2C(=O)Nc3ccccc32)c1C(=O)OC [3-(2-chloro-4-methoxycarbonyl-3-methoxycarbonylmethylpyrrol-5-methylidenyl)-2-indolinone],> 50
8,Cc1c[nH]c(C=C2C(=O)Nc3ccccc32)c1CCC(=O)O [3-[3-(2-carboxyethyl-4-methylpyrrol-2-methylidenyl]-2-indolinone],> 100
9,COC(=O)CCc1c[nH]c(C=C2C(=O)Nc3ccccc32)c1C [3-[4-(2-methoxycarbonylethyl-3-methylpyrrol-2-methylidenyl]-2-indolinone],> 100
10,"CCOC(=O)c1c(C)[nH]c(C=C2C(=O)Nc3ccc(NC(=O)c4ccc(C(=O)OC)cc4)cc32)c1C [3-(2,4-dimethyl-3-ethoxycarbonylpyrrol-5-methylidenyl)-5-(4-methoxycarbonylbenzamido)-2-indolinone]",> 10

# Source: patent publication US6486185B1, “3-heteroarylidene-2-indolinone protein kinase inhibitors” (Sugen, Inc., priority 1997, dated 2002)
